Measured values from patent publication US11052131B2, “Methods and pharmaceutical compositions for the treatment of kidney cancer” (INSERM (Institut National de la Santé et de la Recherche …, priority 2016, dated 2021).
“Also recorded” adds a separate entry of the source.

Tests used:
recombinant human furin = recombinant human furin (Homo sapiens, UniProt P09958); test: In vitro enzymatic digestion of Ela peptides with furin (western blot); type: biochemical; conditions: furin 0.2×10^−4U, 4 h, western blotting with anti-Ela antibody
Protocol: FIG. 4. ProEla processing. […] As assessed by western blotting using an anti-Ela antibody, furin processes the wild-type proEla 32 at the corresponding physiological cleavage sites.
Ela peptides were digested with furin for 4 h as previously described (Sfaxi et al., 2014, Scamuffa et al., 2008) and were subjected to Western blotting analysis.
The generated in vitro enzymatic digestion products were subjected to SDS-polyacrylamide gel electrophoresis in 13% gels. The primary antibody used was an anti-Ela 11 (Eurogentec). Horseradish peroxidase-conjugated secondary antibody and enhanced chemiluminescence (ECL+Plus, Amersham) were used for primary antibody revelation according to the manufacturers' instructions using a Chemiluminescence imaging system (GeneGnome, Syngene) (Sfaxi et al., 2014, Scamuffa et al., 2008).
The cDNA structure of human ELA predicts an 54 amino acids (aa) pre-proEla. Following the removal of the 22 aa of the signal peptide the hormone is released as proEla of 32 aa. […] To study the importance of the proteolytic maturation of […] by the PCs in the mediation of its function we first assessed experimentally proEla 32 processing by furin using an in vitro digestion assay.

ERK = ERK activation analysis (phospho-ERK western blot) in HEK293A GFP-APJ cells; type: cell-based, human; conditions: 1 μM; for phosphorylation of ERK: within 5 min of treatment
Protocol: (§1) Cells were lysed in RIPA buffer (150 mM NaCl, 50 mM Tris, 1 mM EDTA, 1% NP40, 0.25% sodium deoxycholate, pH8) and were subjected to SDS-PAGE on 12% gels. Cell lysates were analyzed by western blotting for ERK, AKT and P70 phosphorylation using an anti-phospho-ERK; anti-phospho-AKT and anti-phospho-P70 (Cell Signaling), respectively. The blots were stripped and reprobed with ERK, AKT or P70 (Cell Signaling) for data normalization. Primary antibodies were visualized using horseradish peroxidase-conjugated secondary antibodies (Amersham), and signals were detected using ECLPlus chemiluminescence system according to the manufacturers' instructions (Amersham).

AKT = AKT activation analysis (phospho-AKT western blot) in HEK293A GFP-APJ cells; type: cell-based, human; conditions: 1 μM; for phosphorylation of AKT: seen after 5 min
Protocol: as §1

P70s6K = test: P70 activation analysis (phospho-P70 western blot) in HEK293A GFP-APJ cells; type: cell-based, human; conditions: 1 μM, same conditions
Protocol: as §1

LC3II = test: mTOR signalling pathway in serum-starved RENCA cells: autophagy (LC3II); type: cell-based, murine; conditions: lentiviral expression in RENCA cells, serum starvation
Protocol: as §1, with “RENCA cells overexpressing lentivirus encoding for wild type proEla, mutant proEla, or only tdTomato, were maintained in serum free media for different time. Cells” for “Cells”, “LC3, NFkB, Erk1/2, AKT, S6K or actin” for “ERK, AKT and P70 phosphorylation”, “anti phosphor NFkB, anti-phospho Erk, anti-phospho-Akt, anti-phospho S6K.” for “an anti-phospho-ERK; anti-phospho-AKT and anti-phospho-P70 (Cell Signaling), respectively.”
(§2) To evaluate the role of Elabela on kidney cancer progression, we used RENCA cells expressing elabela or elabela mutated at the furin site. Cells wera starved of serum for 1, 3, 6, 12 or 24 hours and the effect of Elabela on the mTOR pathway was observed by lookind at the phosphorylation or nfkB, Erk1/2, akt, or S6K.

mTORC1 pathway = test: mTOR signalling pathway in serum-starved RENCA cells: mTORC1 (S6K and S6 phosphorylation); type: cell-based, murine; conditions: lentiviral expression in RENCA cells, serum starvation
Protocol: as §1, with “RENCA cells overexpressing lentivirus encoding for wild type proEla, mutant proEla, or only tdTomato, were maintained in serum free media for different time. Cells” for “Cells”, “LC3, NFkB, Erk1/2, AKT, S6K or actin” for “ERK, AKT and P70 phosphorylation”, “anti phosphor NFkB, anti-phospho Erk, anti-phospho-Akt, anti-phospho S6K.” for “an anti-phospho-ERK; anti-phospho-AKT and anti-phospho-P70 (Cell Signaling), respectively.”
as §2

ERK signaling = test: mTOR signalling pathway in serum-starved RENCA cells: ERK signaling; type: cell-based, murine; conditions: lentiviral expression in RENCA cells, serum starvation
Protocol: as §1, with “RENCA cells overexpressing lentivirus encoding for wild type proEla, mutant proEla, or only tdTomato, were maintained in serum free media for different time. Cells” for “Cells”, “LC3, NFkB, Erk1/2, AKT, S6K or actin” for “ERK, AKT and P70 phosphorylation”, “anti phosphor NFkB, anti-phospho Erk, anti-phospho-Akt, anti-phospho S6K.” for “an anti-phospho-ERK; anti-phospho-AKT and anti-phospho-P70 (Cell Signaling), respectively.”
as §2

mTORC2 signaling = test: mTOR signalling pathway in serum-starved RENCA cells: mTORC2 (P(473)AKT); type: cell-based, murine; conditions: lentiviral expression in RENCA cells, serum starvation
Protocol: as §1, with “RENCA cells overexpressing lentivirus encoding for wild type proEla, mutant proEla, or only tdTomato, were maintained in serum free media for different time. Cells” for “Cells”, “LC3, NFkB, Erk1/2, AKT, S6K or actin” for “ERK, AKT and P70 phosphorylation”, “anti phosphor NFkB, anti-phospho Erk, anti-phospho-Akt, anti-phospho S6K.” for “an anti-phospho-ERK; anti-phospho-AKT and anti-phospho-P70 (Cell Signaling), respectively.”
as §2

PI3K signaling = test: mTOR signalling pathway in serum-starved RENCA cells: PI3K (P(308)AKT); type: cell-based, murine; conditions: lentiviral expression in RENCA cells, serum starvation
Protocol: as §1, with “RENCA cells overexpressing lentivirus encoding for wild type proEla, mutant proEla, or only tdTomato, were maintained in serum free media for different time. Cells” for “Cells”, “LC3, NFkB, Erk1/2, AKT, S6K or actin” for “ERK, AKT and P70 phosphorylation”, “anti phosphor NFkB, anti-phospho Erk, anti-phospho-Akt, anti-phospho S6K.” for “an anti-phospho-ERK; anti-phospho-AKT and anti-phospho-P70 (Cell Signaling), respectively.”
as §2

NFkB signaling = test: mTOR signalling pathway in serum-starved RENCA cells: NFkB; type: cell-based, murine; conditions: lentiviral expression in RENCA cells, serum starvation
Protocol: as §1, with “RENCA cells overexpressing lentivirus encoding for wild type proEla, mutant proEla, or only tdTomato, were maintained in serum free media for different time. Cells” for “Cells”, “LC3, NFkB, Erk1/2, AKT, S6K or actin” for “ERK, AKT and P70 phosphorylation”, “anti phosphor NFkB, anti-phospho Erk, anti-phospho-Akt, anti-phospho S6K.” for “an anti-phospho-ERK; anti-phospho-AKT and anti-phospho-P70 (Cell Signaling), respectively.”
as §2

Renca cells [1] = test: Tumorigenicity assay, Renca cells injected subcutaneously into syngeneic Balb/c mice; type: in vivo; conditions: for tumor growth / tumor progression: 1×10^5 Renca cells stably expressing the construct (lentiviral), subcutaneous, vs control cells with empty vector; for tumor growth inhibition, wild type compared to mutant: subcutaneous Renca tumors, Balb/c mice
Renca cells [2] = test: Kidney tumor progression, subcapsular inoculation of Renca cells in syngenic mice; type: in vivo; conditions: Renca cells expressing the construct (lentiviral), sub-capsular injection
Source text: FIG. 3. Effect of Elabela expression in the kidney tumor cells (Renca) on kidney tumor progression. Elabela wild type (ela wt) or control lentivirus were used to express ela wt in Renca cells prior their subcapsular inoculation in syngenic mice.

Renca cells [3] = test: Wound healing assay; type: cell-based, murine; conditions: in vitro, 8 or 24 h after serum starvation
Protocol: Renca cells were cultivated until sub-confluency. A scratch is realized with a tip on each well and the wound healing is observed after 8 or 24 h after serum starvation.

Renca cells [4] = test: Proliferation assay (IncuCyte ZOOM live cell imaging); type: cell-based, murine; conditions: 2% foetal calf serum, 50 hours
Protocol: FIG. 8. RENCA (20,000 cells 4 cells/well) cells were plated in 96-well plates, proliferation assay was performed using the IncuCyte ZOOM™ live cell imaging system (Essen BioScience, MI USA). This system measures cell density. Cells are routinely propagated in RPMI 1640 medium (Life Technologies) in 2% foetal calf serum at 37° C. Cells are regularly screened for Mycoplasma (ATCC). The plate is placed into the IncuCyte ZOOM™ apparatus and images of the collective cell spreading are recorded every 2 hours for a total duration of 50 hours.

[5] = target: T1, human GFP-APJ fusion protein (Homo sapiens, UniProt P35414); test: APJ receptor internalization assay in HEK293A cells expressing GFP-APJ; type: cell-based; conditions: 1 μM peptide, 30 min, HEK293 cells expressing GFP-APJ
T1 construct: expressed in transfected cells
T1 sequence (P35414 1-380): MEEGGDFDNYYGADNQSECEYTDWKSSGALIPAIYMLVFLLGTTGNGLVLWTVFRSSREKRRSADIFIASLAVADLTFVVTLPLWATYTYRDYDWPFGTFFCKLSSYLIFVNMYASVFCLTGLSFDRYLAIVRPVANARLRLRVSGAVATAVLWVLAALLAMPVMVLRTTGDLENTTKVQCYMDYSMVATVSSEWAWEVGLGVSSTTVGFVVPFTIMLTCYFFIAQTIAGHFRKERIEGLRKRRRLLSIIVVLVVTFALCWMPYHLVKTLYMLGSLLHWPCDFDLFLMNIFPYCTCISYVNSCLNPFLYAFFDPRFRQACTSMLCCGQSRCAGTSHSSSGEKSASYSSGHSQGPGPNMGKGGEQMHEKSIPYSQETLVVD
Protocol: Cells were fixed with 4% paraformaldehyde for 10 minutes at room temperature and APJ receptor internalization was analyzed using a Nikon epifluorescence microscopy.
Ligand-induced receptor internalization is a cellular response of APJ to ligand binding and its activation.

Sequence of recombinant human furin (P09958 108-794): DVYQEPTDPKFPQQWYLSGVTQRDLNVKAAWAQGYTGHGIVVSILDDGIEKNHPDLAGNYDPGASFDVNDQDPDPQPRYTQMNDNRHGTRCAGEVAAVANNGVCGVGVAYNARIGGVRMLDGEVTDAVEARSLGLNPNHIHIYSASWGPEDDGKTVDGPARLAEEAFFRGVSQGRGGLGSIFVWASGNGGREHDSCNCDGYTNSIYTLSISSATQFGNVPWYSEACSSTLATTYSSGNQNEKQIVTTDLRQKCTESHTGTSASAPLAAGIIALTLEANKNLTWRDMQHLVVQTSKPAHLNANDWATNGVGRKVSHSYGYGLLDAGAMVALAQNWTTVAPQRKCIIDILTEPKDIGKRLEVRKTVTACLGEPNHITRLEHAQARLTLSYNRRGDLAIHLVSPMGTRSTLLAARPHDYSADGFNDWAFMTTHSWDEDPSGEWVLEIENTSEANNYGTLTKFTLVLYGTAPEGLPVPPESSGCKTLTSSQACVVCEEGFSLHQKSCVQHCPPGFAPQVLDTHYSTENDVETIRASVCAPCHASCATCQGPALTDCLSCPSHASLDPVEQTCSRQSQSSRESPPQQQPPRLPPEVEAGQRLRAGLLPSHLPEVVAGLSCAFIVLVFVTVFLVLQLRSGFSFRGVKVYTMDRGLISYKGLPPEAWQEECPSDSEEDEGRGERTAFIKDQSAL

Substance | phosphorylation of ERK after 15 min (ERK) | phosphorylation of ERK (ERK) | AKT activation compared to effect on ERK activation (AKT) | time of peak AKT phosphorylation (AKT) | phosphorylation of AKT (AKT) | P70s6K activation (P70s6K) | induction of autophagy, estimated by LC3II levels (LC3II) | ERK signaling, determined by ERK phosphorylation (ERK signaling) | mTORC2 signaling, determined by P(473)AKT (mTORC2 signaling) | PI3K signaling, determined by P(308)AKT (PI3K signaling) | NFkB signaling (NFkB signaling) | other results
QRPVNLTMRRKLRKHNCLQRRCMPLHSRVPFP [wild type proEla 32] | reduced | able to induce the phosphorylation of ERK | lower AKT activation while compared to their effect on ERK activation | about 15 min | weak visible phosphorylation of AKT | failed to induce significant effect | block in the induction of autophagy | enhanced inhibition of ERK signaling | No effect in mTORC2 signaling | No effect in PI3K signaling | No effect in NFkB signaling | processing by furin, products generated (recombinant human furin; listed as wild type proEla): generated predominantly the mature Ela 11 aa; processing by furin, products generated (recombinant human furin; listed as wild-type proEla 32): generates only the Ela 11 aa; ERK activation compared between the peptides (ERK; same conditions): higher as compared to mut proEla and Ela 11 effect; mTORC1 pathway, determined by S6K and S6 phosphorylation (mTORC1 pathway; listed as WT): sustained activation of mTORC1 pathway; also recorded: induced mTORC1 activation; tumor growth / tumor progression (Renca cells [1]; listed as Ela): inhibits tumor progression; tumor growth / tumor progression (Renca cells [1]; listed as wild type proEla): smaller size of tumors; tumor growth / tumor progression (Renca cells [1]; listed as wild-type proEla 32): reduced significantly tumor growth; tumor growth inhibition, wild type compared to mutant (Renca cells [1]): inhibit more efficiently tumor growth while compared to mutant proEla 32; tumor growth inhibition, wild type compared to mutant (Renca cells [1]; listed as Wild type proEla 32): inhibited more efficiently tumor growth while compared to mutant pro Ela 32; tumor progression (Renca cells [2]): inhibits tumor progression; wound healing of Renca cells (Renca cells [3]): inhibits wound healing of Renca cells; cells proliferation (Renca cells [4]): inhibits renca cells proliferation
mutant proEla 32: proEla 32 in which cleavage sites R31/R32 and R42/R43 were replaced by S31/S32 and S42/S43 (positions 9, 10, 20, 21 of SEQ ID NO: 1) (QRPVNLTMSSKLRKHNCLQSSCMPLHSRVPFP; listed as Homo sapiens) | reduced | able to induce the phosphorylation of ERK | lower AKT activation while compared to their effect on ERK activation | about 15 min | weak visible phosphorylation of AKT | failed to induce significant effect | block in the induction of autophagy | enhanced inhibition of ERK signaling | No effect in mTORC2 signaling | No effect in PI3K signaling | No effect in NFkB signaling | processing by furin, products generated (recombinant human furin; listed as mut proEla 32): failed to generate any products; processing by furin, products generated (recombinant human furin; listed as mutant peptide ProEla 32): failed to generate any mature Ela products; APJ internalization [5]: able to activate the APJ receptor and mediate its internalization; mTORC1 pathway, determined by S6K and S6 phosphorylation (mTORC1 pathway; listed as MUT): sustained activation of mTORC1 pathway; also recorded: induced mTORC1 activation; tumor growth / tumor progression (Renca cells [1]): reduced significantly tumor growth; tumor growth / tumor progression (Renca cells [1]; listed as mut ProEla): smaller size of tumors; tumor growth / tumor progression (Renca cells [1]; listed as mutant ELA polypeptide): capable of inhibiting tumor progression
